Experiments:
Conditions in all cases: compound 10.0 µM
[1] = molecular target: CSNK1D (human) (UniProt P48730)
[2] = molecular target: MAP3K9 (human) (UniProt P80192)
[3] = molecular target: GSK3B (human) (UniProt P49841)
[4] = molecular target: EPHA4 (human) (UniProt P54764)
[5] = molecular target: ADRBK2 (human) (UniProt P35626)
[6] = molecular target: EPHB3 (human) (UniProt P54753)
[7] = molecular target: DDR2 (human) (UniProt Q16832)
[8] = molecular target: DAPK3 (human) (UniProt O43293)
[9] = molecular target: NEK1 (human) (UniProt Q96PY6)
[10] = molecular target: PDPK1 (human) (UniProt O15530)
[11] = molecular target: CSNK2A1 (human) (UniProt P68400)
[12] = molecular target: NEK4 (human) (UniProt P51957)
[13] = molecular target: GSK3A (human) (UniProt P49840)
[14] = molecular target: FYN (human) (UniProt P06241)
[15] = molecular target: AKT2 (human) (UniProt P31751)
[16] = molecular target: FES (human) (UniProt P07332)
[17] = molecular target: MAPK13 (human) (UniProt O15264)
[18] = molecular target: PRKG2 (human) (UniProt Q13237)
[19] = molecular target: NEK11 (human) (UniProt Q8NG66)
[20] = molecular target: INSRR (human) (UniProt P14616)
[21] = molecular target: CAMK1G (human) (UniProt Q96NX5)
[22] = molecular target: TGFBR2 (human) (UniProt P37173)
[23] = molecular target: MAP3K7 (human) (UniProt O43318)
[24] = molecular target: DCLK2 (human) (UniProt Q8N568)
[25] = molecular target: DYRK1B (human) (UniProt Q9Y463)
[26] = molecular target: PAK4 (human) (UniProt O96013)
[27] = molecular target: DMPK (human) (UniProt Q09013)
[28] = molecular target: MST4 (human) (UniProt Q9P289)
[29] = molecular target: CAMKK1 (human) (UniProt Q8N5S9)
[30] = molecular target: DYRK3 (human) (UniProt O43781)
[31] = molecular target: AKT1 (human) (UniProt P31749)
[32] = molecular target: ADRBK1 (human) (UniProt P25098)
[33] = molecular target: DSTYK (human) (UniProt Q6XUX3)
[34] = molecular target: MAP4K4 (human) (UniProt O95819)
[35] = molecular target: MAPKAPK3 (human) (UniProt Q16644)
[36] = molecular target: RPS6KA6 KD1 KD2 (human) (UniProt Q9UK32)
[37] = molecular target: PDGFRB (human) (UniProt P09619)
[38] = molecular target: ULK1 (human) (UniProt O75385)
[39] = molecular target: FGR (human) (UniProt P09769)
[40] = molecular target: CHEK2 (human) (UniProt O96017)
[41] = molecular target: TSSK1B (human) (UniProt Q9BXA7)
[42] = molecular target: HIPK1 (human) (UniProt Q86Z02)
[43] = molecular target: PNCK (human) (UniProt Q6P2M8)
[44] = molecular target: FLT3 (human) (UniProt P36888)
Sequence of FLT3 (human) (P36888 whole entry, looked up): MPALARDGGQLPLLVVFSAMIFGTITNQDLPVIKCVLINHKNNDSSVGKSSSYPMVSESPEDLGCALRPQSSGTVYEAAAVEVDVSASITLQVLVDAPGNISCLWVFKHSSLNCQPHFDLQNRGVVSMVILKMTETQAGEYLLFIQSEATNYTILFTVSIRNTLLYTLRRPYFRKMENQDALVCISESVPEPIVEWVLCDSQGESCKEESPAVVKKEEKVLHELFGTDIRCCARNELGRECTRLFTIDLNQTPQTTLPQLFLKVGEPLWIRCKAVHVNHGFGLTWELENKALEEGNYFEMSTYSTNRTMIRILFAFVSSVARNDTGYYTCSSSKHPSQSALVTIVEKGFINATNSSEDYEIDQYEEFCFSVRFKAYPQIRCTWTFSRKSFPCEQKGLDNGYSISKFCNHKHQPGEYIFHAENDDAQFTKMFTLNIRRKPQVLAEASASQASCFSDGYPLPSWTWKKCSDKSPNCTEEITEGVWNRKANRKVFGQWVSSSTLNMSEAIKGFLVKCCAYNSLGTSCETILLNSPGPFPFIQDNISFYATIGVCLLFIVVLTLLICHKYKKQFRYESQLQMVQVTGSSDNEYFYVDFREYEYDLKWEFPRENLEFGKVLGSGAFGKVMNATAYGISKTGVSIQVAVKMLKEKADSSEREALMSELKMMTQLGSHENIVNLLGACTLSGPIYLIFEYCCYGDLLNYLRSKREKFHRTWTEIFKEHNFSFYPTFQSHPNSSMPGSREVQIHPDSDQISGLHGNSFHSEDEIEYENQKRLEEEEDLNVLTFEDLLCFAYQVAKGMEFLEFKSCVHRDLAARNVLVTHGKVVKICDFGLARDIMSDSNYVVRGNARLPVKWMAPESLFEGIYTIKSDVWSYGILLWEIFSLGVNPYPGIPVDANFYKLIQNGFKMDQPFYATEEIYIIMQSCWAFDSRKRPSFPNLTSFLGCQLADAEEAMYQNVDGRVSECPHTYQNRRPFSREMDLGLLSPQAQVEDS

Sequence of CAMKK1 (human) (Q8N5S9 whole entry, looked up): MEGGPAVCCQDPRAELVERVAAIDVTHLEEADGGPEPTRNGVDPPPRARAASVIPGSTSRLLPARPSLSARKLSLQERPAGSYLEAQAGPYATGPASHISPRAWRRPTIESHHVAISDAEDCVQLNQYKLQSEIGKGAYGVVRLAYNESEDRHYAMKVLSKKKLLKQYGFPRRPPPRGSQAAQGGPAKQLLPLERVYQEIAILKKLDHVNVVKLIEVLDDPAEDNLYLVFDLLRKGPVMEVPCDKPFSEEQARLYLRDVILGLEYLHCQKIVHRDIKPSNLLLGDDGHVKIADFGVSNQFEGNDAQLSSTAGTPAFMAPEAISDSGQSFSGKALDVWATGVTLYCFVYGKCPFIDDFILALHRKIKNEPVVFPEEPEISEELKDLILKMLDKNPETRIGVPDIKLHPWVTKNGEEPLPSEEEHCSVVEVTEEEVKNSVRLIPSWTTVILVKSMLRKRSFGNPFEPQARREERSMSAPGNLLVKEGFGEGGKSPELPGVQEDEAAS
Sequence of CHEK2 (human) (O96017 whole entry, looked up): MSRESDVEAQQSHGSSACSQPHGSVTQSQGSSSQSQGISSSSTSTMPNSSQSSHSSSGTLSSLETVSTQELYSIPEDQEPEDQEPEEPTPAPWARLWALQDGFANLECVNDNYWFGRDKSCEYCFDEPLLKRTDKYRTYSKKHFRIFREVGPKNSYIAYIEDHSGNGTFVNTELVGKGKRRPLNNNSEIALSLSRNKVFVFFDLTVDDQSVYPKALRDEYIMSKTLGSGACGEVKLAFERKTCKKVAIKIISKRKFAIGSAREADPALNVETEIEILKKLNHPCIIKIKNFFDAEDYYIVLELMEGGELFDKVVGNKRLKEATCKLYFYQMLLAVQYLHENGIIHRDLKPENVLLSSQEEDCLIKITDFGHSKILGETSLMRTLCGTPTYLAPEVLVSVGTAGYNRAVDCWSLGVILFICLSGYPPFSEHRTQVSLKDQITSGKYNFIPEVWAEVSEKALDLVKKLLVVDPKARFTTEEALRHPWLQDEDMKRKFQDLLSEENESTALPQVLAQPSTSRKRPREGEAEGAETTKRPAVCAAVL
Sequence of AKT2 (human) (P31751 whole entry, looked up): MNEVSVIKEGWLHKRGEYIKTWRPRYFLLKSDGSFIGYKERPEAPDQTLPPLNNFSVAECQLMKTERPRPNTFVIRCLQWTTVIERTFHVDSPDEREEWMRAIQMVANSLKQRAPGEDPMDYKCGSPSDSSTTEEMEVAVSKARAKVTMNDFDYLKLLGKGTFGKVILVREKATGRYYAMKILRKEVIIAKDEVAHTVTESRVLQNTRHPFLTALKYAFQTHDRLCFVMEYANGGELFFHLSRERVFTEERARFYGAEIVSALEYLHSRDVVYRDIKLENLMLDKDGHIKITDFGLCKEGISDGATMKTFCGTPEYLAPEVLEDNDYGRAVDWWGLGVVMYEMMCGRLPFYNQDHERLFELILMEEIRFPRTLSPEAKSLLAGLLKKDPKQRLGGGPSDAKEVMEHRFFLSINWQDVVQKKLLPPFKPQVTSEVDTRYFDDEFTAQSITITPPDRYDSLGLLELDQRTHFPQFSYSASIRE
Sequence of EPHB3 (human) (P54753 whole entry, looked up): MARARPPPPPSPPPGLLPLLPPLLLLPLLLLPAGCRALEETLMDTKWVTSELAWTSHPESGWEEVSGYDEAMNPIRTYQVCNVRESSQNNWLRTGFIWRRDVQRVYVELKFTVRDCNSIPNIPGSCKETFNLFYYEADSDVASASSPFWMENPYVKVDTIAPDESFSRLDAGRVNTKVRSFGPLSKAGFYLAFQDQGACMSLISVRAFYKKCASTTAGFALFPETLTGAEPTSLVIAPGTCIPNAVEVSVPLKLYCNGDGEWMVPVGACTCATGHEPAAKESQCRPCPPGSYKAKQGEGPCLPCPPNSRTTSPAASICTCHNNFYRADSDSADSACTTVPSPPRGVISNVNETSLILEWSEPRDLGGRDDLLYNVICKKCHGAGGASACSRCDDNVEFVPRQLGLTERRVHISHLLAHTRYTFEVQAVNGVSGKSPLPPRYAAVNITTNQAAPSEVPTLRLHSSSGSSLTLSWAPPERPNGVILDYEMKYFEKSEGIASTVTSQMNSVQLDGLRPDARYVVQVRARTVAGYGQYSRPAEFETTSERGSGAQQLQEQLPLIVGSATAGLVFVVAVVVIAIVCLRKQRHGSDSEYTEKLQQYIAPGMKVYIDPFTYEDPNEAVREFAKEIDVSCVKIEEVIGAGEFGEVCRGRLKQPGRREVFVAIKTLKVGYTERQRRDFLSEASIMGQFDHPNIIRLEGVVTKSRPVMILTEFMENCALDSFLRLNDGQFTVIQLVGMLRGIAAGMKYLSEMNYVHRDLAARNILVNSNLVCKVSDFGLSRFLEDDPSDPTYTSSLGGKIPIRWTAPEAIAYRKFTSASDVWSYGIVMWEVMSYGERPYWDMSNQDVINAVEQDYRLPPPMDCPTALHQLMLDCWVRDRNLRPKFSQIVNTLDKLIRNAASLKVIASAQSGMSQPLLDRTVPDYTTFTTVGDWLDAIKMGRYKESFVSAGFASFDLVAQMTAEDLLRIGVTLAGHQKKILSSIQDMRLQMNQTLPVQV
Sequence of GSK3A (human) (P49840 whole entry, looked up): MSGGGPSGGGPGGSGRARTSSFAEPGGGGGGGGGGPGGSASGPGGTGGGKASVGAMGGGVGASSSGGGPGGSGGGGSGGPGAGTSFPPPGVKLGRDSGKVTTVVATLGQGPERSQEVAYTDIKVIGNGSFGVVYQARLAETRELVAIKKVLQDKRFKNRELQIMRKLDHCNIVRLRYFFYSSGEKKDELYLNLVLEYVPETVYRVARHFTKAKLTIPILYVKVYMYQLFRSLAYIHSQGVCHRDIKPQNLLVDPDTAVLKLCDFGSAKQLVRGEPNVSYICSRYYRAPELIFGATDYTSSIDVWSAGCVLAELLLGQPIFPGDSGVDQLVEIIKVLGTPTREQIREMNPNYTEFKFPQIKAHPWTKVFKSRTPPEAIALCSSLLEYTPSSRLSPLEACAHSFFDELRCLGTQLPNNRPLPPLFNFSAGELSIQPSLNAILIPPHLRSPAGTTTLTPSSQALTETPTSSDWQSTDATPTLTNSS
Sequence of DYRK1B (human) (Q9Y463 whole entry, looked up): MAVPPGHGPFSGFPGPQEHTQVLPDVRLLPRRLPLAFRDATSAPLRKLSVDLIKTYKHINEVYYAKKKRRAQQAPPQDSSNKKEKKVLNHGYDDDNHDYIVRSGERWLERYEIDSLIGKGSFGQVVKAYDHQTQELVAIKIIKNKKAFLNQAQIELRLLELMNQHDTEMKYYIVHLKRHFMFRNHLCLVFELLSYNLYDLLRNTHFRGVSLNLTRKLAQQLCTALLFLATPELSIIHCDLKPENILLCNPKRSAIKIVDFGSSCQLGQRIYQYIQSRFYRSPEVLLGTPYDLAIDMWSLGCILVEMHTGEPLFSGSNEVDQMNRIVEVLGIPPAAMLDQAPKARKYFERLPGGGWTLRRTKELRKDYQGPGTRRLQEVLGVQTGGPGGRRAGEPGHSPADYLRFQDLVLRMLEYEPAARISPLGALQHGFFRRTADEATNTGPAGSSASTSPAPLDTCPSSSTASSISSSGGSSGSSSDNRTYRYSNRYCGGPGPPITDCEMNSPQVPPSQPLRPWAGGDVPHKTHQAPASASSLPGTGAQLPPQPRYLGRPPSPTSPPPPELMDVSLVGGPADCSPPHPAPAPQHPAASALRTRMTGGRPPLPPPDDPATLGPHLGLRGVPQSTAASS
Sequence of MAPK13 (human) (O15264 whole entry, looked up): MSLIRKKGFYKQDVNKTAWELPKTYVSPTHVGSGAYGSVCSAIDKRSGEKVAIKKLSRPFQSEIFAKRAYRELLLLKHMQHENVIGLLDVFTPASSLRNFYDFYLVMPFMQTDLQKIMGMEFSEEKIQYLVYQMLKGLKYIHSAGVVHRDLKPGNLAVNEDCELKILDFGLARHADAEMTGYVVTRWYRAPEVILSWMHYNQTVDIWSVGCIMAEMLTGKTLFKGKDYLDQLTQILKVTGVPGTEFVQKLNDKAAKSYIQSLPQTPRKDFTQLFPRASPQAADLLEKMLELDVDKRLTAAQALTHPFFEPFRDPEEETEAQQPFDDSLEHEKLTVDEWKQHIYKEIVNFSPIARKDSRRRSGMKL

residual activity [1]: 100% | residual activity [2]: 92.5% | residual activity [3]: 96% | residual activity [4]: 92% | residual activity [5]: 105% | residual activity [6]: 92.5% | residual activity [7]: 102% | residual activity [8]: 106% | residual activity [9]: 96.5% | residual activity [10]: 100% | residual activity [11]: 110% | residual activity [12]: 95.5% | residual activity [13]: 102% | residual activity [14]: 100% | residual activity [15]: 93.5% | residual activity [16]: 99% | residual activity [17]: 95% | residual activity [18]: 97% | residual activity [19]: 107% | residual activity [20]: 88% | residual activity [21]: 84% | residual activity [22]: 100% | residual activity [23]: 106% | residual activity [24]: 104% | residual activity [25]: 90.5% | residual activity [26]: 97.5% | residual activity [27]: 100% | residual activity [28]: 98% | residual activity [29]: 96% | residual activity [30]: 96.5% | residual activity [31]: 91% | residual activity [32]: 108% | residual activity [33]: 97.5% | residual activity [34]: 102% | residual activity [35]: 100% | residual activity [36]: 92% | residual activity [37]: 102% | residual activity [38]: 98% | residual activity [39]: 91% | residual activity [40]: 71% | residual activity [41]: 102% | residual activity [42]: 99% | residual activity [43]: 88% | residual activity [44]: 87.5%
Compound: CC[C@H](C)n1cc(C)c2c(C(=O)NCc3c(C)cc(C)[nH]c3=O)cc(-c3ccc(N4CCNCC4)nc3)cc21
